Results: PMC9148403, “1,3,5-triazines inhibit osteosarcoma and avert lung metastasis in a patient-derived orthotopic xenograft mouse model with favorable pharmacokinetics” (Iranian Journal of Basic Medical Sciences, 2022)

What was measured:
PI3K = PI3K luminescent kinase assay (Promega); format: biochemical; conditions: read-out: Kinase inhibition IC50 PI3K
Source text: (§1) PI3K and mTOR kinase inhibition assay
(§2) The inhibitory activity of developed molecules against PI3K and mTOR was identified using luminescent kinase assay, and Lance Ultra assay from Promega, USA, respectively as per our earlier reported procedure ([38]).

KU812 = assay: Cellular antiproliferation assay (CCK-8), KU812; format: cell-based, human; conditions: KU812 cells, read-out: Cell growth inhibition IC50 KU812
K562 = assay: Cellular antiproliferation assay (CCK-8), K562; format: cell-based, human; conditions: K562 cells, read-out: Cell growth inhibition IC50 K562
Saos-2 = assay: Cellular antiproliferation assay (CCK-8), Saos-2; format: cell-based, human; conditions: Saos-2 cells, read-out: Cell growth inhibition IC50 Saos-2
Experimental: The human osteosarcoma cancer cell lines MG-63, U2-OS, and Saos-2 were purchased from CBSIBCB of the Chinese Academy of Sciences (Shanghai, China)
Cellular antiproliferation assay using cell counting kit (CCK-8)
The CCK-8 assay was used in the current study to analyze the effect of compounds on cellular proliferation. The transfected cells were seeded in a 96-well plate, and to this CCK-8 (20 µl) was added. The enzyme microplate reader at 450 nm was used to record the absorbance. The inhibitory effect on cellular proliferation was obtained as per the given formula: Inhibitory activity (%) = (1 - Atest/Acontrol) × 100 %.

mTOR = mTOR (Homo sapiens, UniProt P42345); assay: mTOR Lance Ultra kinase assay; format: biochemical; conditions: read-out: Kinase inhibition IC50 mTOR
Source text: as §1, §2

[1] = tested on: patient-derived osteosarcoma; assay: Osteosarcoma patient-derived orthotopic xenograft (PDOX) mouse model; format: in vivo, Athymic nu/nu nude mice
Experimental: Surgical orthotopic implantation (SOI) for the establishment of the osteosarcoma PDOX model
The PDOX model in Athymic nu/nu nude mice was established according to our earlier reported procedure ([38]). The tumor tissue for implantation was obtained from a OS patient with written informed consent.
The mice were arbitrarily categorized into four dissimilar groups (n=6), and the treatment schedule lasted for 14 days as follows. The compound 8a was dissolved in the solution of PEG400/Tween 80/Saline solution at 10/10/80 % in volume, respectively prior to intraperitoneal administration.
Groups 2, 3, and 4 received compound 8a (2, 5, and 10 mg/kg, respectively, IP, daily)
The control animals received the vehicle only.
The length and width of the tumor along with the bodyweight of mice were recorded.
The tumor volume was calculated with the following formula:
Tumor volume (mm^3)= length (mm) × width (mm) × […])⁄2
Examination of lung histopathology
At the end of the experiment, the lung tissues were harvested and fixed in formalin (10%). The tissues were further entrenched in paraffin, sectioned using a microtome into 5-μm thickness. The resulting sections were dyed using hematoxylin-eosin (HE).

Saos-2 cells [2] = assay: Flow cytometric apoptosis assay (Annexin V/PI); format: cell-based, human; conditions: Saos-2 cells, 10, 20 and 30 µM
Experimental: Flow cytometric apoptosis assay
The effect of compound 8a (0, 10, 20, and 30 µM) on apoptosis was investigated on Saos-2 cells as per our earlier reported procedure using a FACSCalibur flow cytometer with CellQuest V.3.3 software (BD Biosciences, USA) ([38]).

[3] = Pharmacokinetic assessment in SD rats; format: in vivo; conditions: for AUC 0- INF / C max / T max / T ½: rat, in vivo
Experimental: Pharmacokinetic assessment
The compound 8a was administered to female SD rats in a single dose of 1 and 5 mg/kg using intra-venomous and per-oral route in the vehicle. The blood samples from the rats were collected in a timely manner starting from 2 min to 24 hr. The serum was extracted from the blood-aliquots for the estimation of various pharmacokinetic parameters (T1/2, Tmax, Cmax, AUC0-INF) developed using WinNonlin software using LC-MS/MS (Applied Biosystem, USA).

Saos-2 cells [4] = assay: Cell cycle analysis by flow cytometry; format: cell-based, human; conditions: Saos-2 cells, 10, 20 and 30 µM
Experimental: The effect of compound 8a (0, 10, 20, and 30 µM) was investigated on the cell cycle of Saos-2 cells as per our earlier reported procedure using a FACSCalibur flow cytometer with CellQuest V.3.3 software (BD Biosciences, USA) ([38]).

Structure (SMILES)	IC50 (PI3K) [µM]	IC50 (KU812) [µM]	IC50 (K562) [µM]	IC50 (Saos-2) [µM]	IC50 (mTOR) [µM]	other results
Cc1nc(NC(=O)c2ccc(CN3CCN(c4ccc(Br)cc4)CC3)cc2)nc(Nc2nccc(-c3nccs3)n2)n1 [Compound 8b]	0.885	0.83	0.73	0.268	0.389	–
Cc1ccc(N2CCN(Cc3ccc(C(=O)Nc4nc(C)nc(Nc5nccc(-c6nccs6)n5)n4)cc3)CC2)cc1 [Compound 8c]	0.967	1.03	0.9	0.53	0.49	–
Cc1nc(NC(=O)c2ccc(CN3CCN(c4ccc([N+](=O)[O-])cc4)CC3)cc2)nc(Nc2nccc(-c3nccs3)n2)n1 [Compound 8d]	0.905	0.95	0.822	0.34	0.414	–
Cc1nc(NC(=O)c2ccc(CN3CCN(c4ccc(O)cc4)CC3)cc2)nc(Nc2nccc(-c3nccs3)n2)n1 [Compound 8e]	0.987	1.14	0.887	0.478	0.456	–
Cc1nc(NC(=O)c2ccc(CN3CCN(c4ccc(Cl)cc4)CC3)cc2)nc(Nc2nccc(-c3nccs3)n2)n1 [Compound 8a]	0.786	0.722	0.62	0.21	0.345	Effect on lung metastasis (lung histopathology) ([1]; PDOX mice, 2 mg/kg IP daily, 14 days): does not have a significant effect; Effect on lung metastasis (lung histopathology) ([1]; PDOX mice, 5 mg/kg IP daily, 14 days): less necrotic lesions and minimum interstitial hemorrhages; Effect on lung metastasis (lung architecture, histopathology) ([1]; PDOX mice, 10 mg/kg IP daily, 14 days): significantly restored close to normal; Body weight of mice ([1]; PDOX mice, 2, 5 and 10 mg/kg IP daily, 14 days, vs control): improvement in body weight; Tumor volume ([1]; PDOX mice, 2, 5 and 10 mg/kg IP daily, at the end of the study): significantly reduced; Effect on apoptosis of Saos-2 cells (Saos-2 cells [2]): dose-dependently increases apoptosis; Tolerability in the pharmacokinetic study ([3]; SD rats, 1 mg/kg IV and 5 mg/kg PO single dose): well-tolerated; AUC 0- INF ([3]; iv, 1 mg/kg): 61.201 µg·h/mL; C max ([3]; iv, 1 mg/kg): 8126 ng/mL; T max ([3]; iv, 1 mg/kg): 0.13 h; T ½ ([3]; iv, 1 mg/kg): 0.75 h; AUC 0- INF ([3]; po, 5 mg/kg): 297.326 µg·h/mL; C max ([3]; po, 5 mg/kg): 410 ng/mL; T max ([3]; po, 5 mg/kg): 2.67 h; T ½ ([3]; po, 5 mg/kg): 3.5 h; Effect on cell cycle of Saos-2 cells (Saos-2 cells [4]): G2/M phase arrest
COc1ccc(N2CCN(Cc3ccc(C(=O)Nc4nc(C)nc(Nc5nccc(-c6nccs6)n5)n4)cc3)CC2)cc1 [Compound 8f]	1.25	1.23	1.2	0.905	0.834	–
